Reference: US7994222B2, “Monitoring of the inhibition of fatty acid synthesis by iodo-nitrobenzamide compounds” (BiPar Sciences, Inc., priority 2006, dated 2011)
“Also recorded” adds a separate entry of the source.

How the values were obtained:
HeLa cells = assay: Metabolic flux profiling with [1,2-13C2]-D-glucose tracer in cultured HeLa cells (GC/MS, MIDA); assay type: cell-based, human
Source text: (§1) Goal: This study relates to analyzing the effect of the 3-nitro-4-iodobenzamide (compound of formula III) in vitro on cultured OVCAR-3 cells' and HeLa cells' metabolic fluxes using [1,2-^13C2]-D-glucose as the only source of glucose. The analysis includes correlating fluxes with cell growth-modifying effect, analyzing mechanism of anti-proliferative action and analyzing potential toxicity, selectivity, and efficacy. Target metabolites include glucose (culture medium and pellet glycogen), lactate (culture medium), ^13CO2 (culture medium), C:14 (myristate); C:16 (palmitate); C:18 (stearate); C:18-1 (oleate); C:20; C:22; C:24 (cell pellet), acetyl-CoA synthesis for fatty acids (cell pellet), and RNA ribose and DNA deoxyribose (cell pellet). Target fluxes include glucose uptake from culture media; lactate production from glucose (anaerobic glycolysis); ^13CO2 release from glucose via TCA cycle; glycogen synthesis; de novo fatty acid synthesis, elongation, desaturation and acetyl-CoA synthesis; and pentose cycle-RNA and DNA ribose synthesis via oxidative and non-oxidative reactions.
(§2) Materials & Methods: The tracer for this metabolic profiling study, stable isotope [1, 2-^13C2]-D-glucose, is purchased with >99% purity and 99% isotope enrichment for each position from Cambridge Isotope Laboratories, Inc. (Andover, Mass.).
(§3) Cells & cell culture: OVCAR3 and Hela cells are purchased from American Type Culture Collection (ATCC). The cells are cultured according to instructions obtained from ATCC. The cells are incubated at 37° C., 5% CO2 and 95% humidity and passed by using trypsin 0.25% (Gibco/BRL) no more than ten times after receipt from the ATCC and prior to use in this study.
(§4) Seventy-five percent confluent cultures cells are incubated in [1,2-^13C2]D-glucose-containing media (100 mg/dl total concentration=5 mM; 50% isotope enrichment—i.e. half unlabeled glucose, half labeled with the stable isotope ^13C tracer). […] Control cultures are treated with vehicle only. […] Glucose and lactate levels in the medium are measured using a Cobas Mira chemistry analyzer (Roche Diagnostics, Pleasanton, Calif., USA).
(§5) RNA ribose stable isotope studies: RNA ribose is isolated by acid hydrolysis of cellular RNA after Trizol purification of cell extracts. Total RNA amounts are assessed by spectrophotometric determination, in triplicate cultures. Ribose is derivatized to its aldonitrile acetate form using hydroxylamine in pyridine with acetic anhydride (Supelco, Bellefonte, Pa.) before mass spectral analyses. The ion cluster is monitored around the m/z 256 (carbons 1-5 of ribose) (chemical ionization, CI) and m/z 217 (carbons 3-5 of ribose) and m/z 242 (carbons 1-4 of ribose) (electron impact ionization, EI) to determine molar enrichment and the positional distribution of ^13C in ribose. By convention, the base mass of ^12C-compounds (with their derivatization agents) is given as m0 as measured by mass spectrometry (Boros L G, et al. 2002, Drug Discov. Today 7: 364-372).
(§6) Ribose molecules labeled with a single ^13C atom on the first carbon position (m1) recovered from RNA are used to gauge the ribose fraction produced by direct oxidation of glucose through the G6PD pathway. Ribose molecules labeled with ^13C on the first two carbon positions (m2) are used to measure the fraction produced by transketolase. Doubly labeled ribose molecules (m2 and m4) on the fourth and fifth carbon positions are used to measure molar fraction produced by triose phosphate isomerase and transketolase.
(§7) Lactate: Lactate from the cell culture media (0.2 ml) is extracted by ethylene chloride after acidification with HCL. Lactate is derivatized to its propylamine-heptafluorobutyrate ester form and the m/z 328 (carbons 1-3 of lactate) (chemical ionization, CI) is monitored for the detection of m1 (recycled lactate through the PC) and m2 (lactate produced by the Embden-Meyerhof-Pamas pathway) for the estimation of pentose cycle activity (Lee W N, et al. 1998, Am J Physiol 274: E843-E851). […]

glycogen phosphorylase = details: in the presence or absence of glucose; human cells; cited from earlier work
OVCAR-3 cells = assay: Metabolic flux profiling with [1,2-13C2]-D-glucose tracer in cultured OVCAR-3 cells (GC/MS, MIDA); assay type: cell-based, human
Source text: as §1, §2, §3, §4, §5, §6, §7

tumor tissue = details: in vivo; cited from earlier work
cancer cells = cancer cells with highly active fatty acid synthesis; cited from earlier work
[1] = cited from earlier work

NC(=O)c1ccc(I)c([N+](=O)[O-])c1 [3-nitro-4-iodobenzamide]
De novo synthesis of arachidic acid (C:20) (HeLa cells; HeLa cells): spared from the inhibitory action | Oxidation of glucose into CO2 and ATP production in the TCA cycle (HeLa cells; HeLa cells): not affected | acetyl-CoA contribution from glucose to long chain saturated fatty acids (C:20-C:24) (HeLa cells; HeLa cells): dose-dependent increase | contribution to acetyl-CoA synthesis from glucose (C:14-C:18 fatty acids) (HeLa cells; HeLa cells): low | substrate (glucose) uptake and activation (phosphorylation) (HeLa cells; HeLa cells): no inhibitory effect | toxic effects on cell energy production, nucleic acid turnover and glycogen synthesis (HeLa cells; HeLa cells): no toxic effects | medium and long chain fatty acid (C:14-C:18) de novo synthesis from glucose (HeLa cells; HeLa cells, dose-responsive): decreased | cell membrane formation via limited de novo fatty acid synthesis (HeLa cells; HeLa cells, mechanism of anti-proliferative action): decreases | Acetyl-CoA enrichment/formation from glucose for arachidic acid synthesis (HeLa cells; HeLa cultures): high and increases | myristate (C:14) synthesis (HeLa cells; Hela cells, 3 and 10 μM, 13C-labeled myristate at 72 hours, FIGS. 3A and B): inhibit | oleate (C:18-1) synthesis (HeLa cells; Hela cells, 3 and 10 μM, 13C-labeled oleate at 72 hours, FIGS. 6A and B): inhibit | palmitate (C:16) synthesis (HeLa cells; Hela cells, 3 and 10 μM, 13C-labeled palmitate at 72 hours, FIGS. 4A and B): inhibit | stearate (C:18) synthesis (HeLa cells; Hela cells, 3 and 10 μM, 13C-labeled stearate at 72 hours, FIGS. 5A and B): inhibit | C:22 fatty acid synthesis (HeLa cells; Hela cells, 3 and 10 μM, 72 hours, FIGS. 7A and B): inhibit | C:24 fatty acid synthesis (HeLa cells; Hela cells, 3 and 10 μM, 72 hours, FIGS. 8A and B): inhibit | glycogen phosphorylase activity (glycogen phosphorylase): effectively controls | G6PDH and transketolase fluxes for DNA deoxyribose synthesis (OVCAR-3 cells): target enzymes; also recorded: inhibits | Glycogen synthesis and breakdown via the direct pathway (OVCAR-3 cells): inhibits | acetyl-CoA contribution from glucose to long chain saturated fatty acids (C:20-C:24) (OVCAR-3 cells): dose-dependent increase | toxic effects on cell energy production and nucleic acid RNA turnover (OVCAR-3 cells): no toxic effects | arachidic acid (C:20) synthesis (OVCAR-3 cells; 3 and 10 μM, 72 hours, FIGS. 9A and B): inhibit | C:22 fatty acid synthesis (OVCAR-3 cells; 3 and 10 μM, 72 hours, FIGS. 10A and B): inhibit | C:24 fatty acid synthesis (OVCAR-3 cells; 3 and 10 μM, 72 hours, FIGS. 11A and B): inhibit | cell membrane formation via limited de novo long chain (C:20-C:24) fatty acid synthesis (OVCAR-3 cells; mechanism of anti-proliferative action): decreases

C=C1C(=O)OC(CCCCCCCC)C1C(=O)O (stereo not shown) [C75]
anti-tumor activity (tumor tissue): anti-tumor activity | fatty acid synthesis in tumor tissue (tumor tissue): inhibition

C/C=C/C/C=C/CCC(=O)[C@H]1O[C@H]1C(N)=O [cerulenin]
effect on cancer cells in vitro (cancer cells): cell death by means of apoptosis | in vivo activity [1]: limited in vivo activity
